Holding throughout (assay type): cell-based, human
For assay [1], the system named is MV-4-11 (biphenotypic B myelomonocytic leukaemia) cell line. As to the kind of experiment: MTT antiproliferative assay on MV-4-11 cells. As for the experimental part:
(§1) The applied human cell lines such as MV-4-11 (biphenotypic B myelomonocytic leukaemia), A549 (lung adenocarcinoma), Du-145 (prostate), Hs294T (melanoma), MCF-7 (breast adenocarcinoma) and MCF-10A (normal mammary gland) were obtained from the American Type Culture Collection (ATCC, Rockville, MD, USA). The all cell lines are maintained at the Cell Culture Collection of the Institute of Immunology and Experimental Therapy (Wrocław, Poland). The cells were plated in 96-well plates (Sarstedt, Newton, MA, USA) at a density of 1 × 10^4 cells per well in 100 µL of appropriate culture medium overnight. Biphenotypic B myelomonocytic leukaemia (MV-4-11) cells were cultured in RPMI 1640 medium (Gibco, Scotland, UK) with GlutaMAX (Thermo-Fisher Scientific, Warsaw, Poland) adjusted to contain 1.0 mM sodium pyruvate (Sigma-Aldrich, Chemie GmbH, Steinheim, Germany). Human lung adenocarcinoma (A549) cells were cultured in mixture RPMI 1640 and Opti-MEM medium (Gibco, Scotland, UK) supplemented with GlutaMAX (ThermoFisher Scientific, Warsaw, Poland) and 2mM L-glutamine adjusted to contain 1.0 mM sodium pyruvate. Human prostate (Du-145) and human breast adenocarcinoma (MCF-7) cells were cultured in Eagle medium (IIET, Wrocław, Poland), supplemented with 2 mM L-glutamine adjusted to contain 1.0 mM sodium pyruvate. Human melanoma (Hs294T) cells were cultured in Dulbecco medium (Gibco, Scotland, UK) supplemented with 2 mM L-glutamine. The normal human mammary gland cells (MCF-10A) were cultured in Ham’s F-12 medium containing 2 mM L-glutamine, 5% horse serum, epidermal growth factor EGF (100 μL/100 mL of medium), hydrocortisone (1 mL/ 100 mL of medium), insulin (100 μL/100 mL of medium) and cholera toxin (0.1 mL/100 mL of medium). All applied culture media except MCF-10A were supplemented with 10% of FBS (MV-4-11 cultured with FBS derived from Sigma-Aldrich, Chemie GmbH, Steinheim, Germany, the other cell lines FBS HyClone Thermo-Fisher Scientific, Warsaw, Poland) and streptomycin (100 µg/mL), penicillin (100 U/mL) (both from Polfa, Tarchomin, Poland). The tested cell lines were grown at 37 °C in humid atmosphere saturated with 5% CO2. In our studies were used two assays for determination the cytotoxic activity in vitro of triterpene derivatives. By dissolving 1 mg of each tested compound in 100 µL of DMSO, stock solutions at a 10 mg/mL were obtained. Next, the stock solutions were diluted in appropriate culture medium to reach the required concentrations of compounds ranging from 0.1 to 100 µg/mL. The MTT assay was used for the cytotoxicity screening against biphenotypic B myelomonocytic leukaemia (MV-4-11). The SRB assay was performed for adherent cells such as A549, Du-145, Hs294T, MCF-7 and MCF-10A. Both assays were carried as described by Wietrzyk et al.. The triterpenes in given concentration were examined in triplicates in each experiment, which was repeated 3 times. The results of anticancer activity in vitro were presented as an IC50 in µM. Cisplatin and betulin 1 were used as reference substances.

In assay [2] the test system is A549 (lung adenocarcinoma). As to the kind of experiment: SRB antiproliferative assay on A549 cells. As for the experimental part:
as §1

The test system of the next assay is Du-145 (prostate). As to the kind of experiment: SRB antiproliferative assay on Du-145 cells. The settings on record: SRB assay. The method, then: as §1
(Sulforhodamine B stains cellular protein and so reports cell mass.)

The subject of another assay is Hs294T (melanoma). As to the kind of experiment: SRB antiproliferative assay on Hs294T cells. The settings on record: SRB assay. As for the experimental part:
as §1

In assay [3] the test system is MCF-7 (breast adenocarcinoma). As to the kind of experiment: SRB antiproliferative assay on MCF-7 cells. The settings on record: SRB assay. The method, then: as §1
The subject of assay [4] is MCF-10A (normal mammary gland). As to the kind of experiment: SRB antiproliferative assay on MCF-10A cells. The settings on record: Neg = negative in the concentration used. As for the experimental part:
as §1

Where [5] appears, read: Homo sapiens, MV4-11, MTT assay, Neg = negative in the concentration used.
Where [6] appears, read: MTT assay, Neg = negative in the concentration used.

Like-named read-outs stand apart in the source and are kept apart here.

What is called IC50 is the concentration that inhibits the measured activity by half. In assay [1] (setting [5]), `C=C(C)C1CC[C@]2(C=O)CC[C@]3(C)C(CCC4[C@@]5(C)CC[C@H](OC(=O)CC)C(C)(C)C5CC[C@]43C)C12` (stereo partly shown) [Compound 15, 3-Propanoylbetulinic aldehyde] yielded an IC50 of 71.8 ± 22.9 µM.
On the same count and under the same terms, then `C=C(C)C1CC[C@]2(C=O)CC[C@]3(C)C(CCC4[C@@]5(C)CC[C@H](OC(=O)C#CC6CC6)C(C)(C)C5CC[C@]43C)C12` (stereo partly shown) [Compound 17, 3-(3-Cyclopropyl-2-propynoyl)betulinic aldehyde], with 86.7 ± 42.8 µM; and `C=CCOC(=O)O[C@H]1CC[C@@]2(C)C(CC[C@]3(C)C2CCC2C4C(C(=C)C)CC[C@]4(CO)CC[C@]23C)C1(C)C` (stereo partly shown) [Compound 12, 3-Allyloxycarbonylbetulin], with 20.1 ± 4.7 µM; and `C=C(C)C1CC[C@]2(C=O)CC[C@]3(C)C(CCC4[C@@]5(C)CC[C@H](OC(=O)OCC)C(C)(C)C5CC[C@]43C)C12` (stereo partly shown) [Compound 20, 3-Ethoxycarbonylbetulinic aldehyde], with 25.1 ± 7.2 µM.
Take `N.N.[Cl][Pt][Cl]` [Cisplatin, reference compound]: the IC50 in assay [1] (setting [6]) was 1 ± 0.27 µM; in assay [2], 4.3 ± 1.3 µM; with Du-145 (prostate), 1.6 ± 0.3 µM; with Hs294T (melanoma) it was 6.3 ± 1.3 µM; in assay [3] it was 7.7 ± 0.3 µM; in assay [4] it was 14.7 ± 1 µM.
Consider `C=C(C)C1CC[C@]2(CO)CC[C@]3(C)C(CCC4[C@@]5(C)CC[C@H](OC(=O)C#CC6CC6)C(C)(C)C5CC[C@]43C)C12` (stereo partly shown) [Compound 7, 3-(3-Cyclopropyl-2-propynoyl)betulin], for which, in assay [1] (setting [5]), half-maximal inhibition (IC50) required 62.4 ± 9.9 µM.
With `C=C(C)[C@@H]1CC[C@]2(CO)CC[C@]3(C)[C@H](CC[C@@H]4[C@@]5(C)CC[C@H](O)C(C)(C)[C@@H]5CC[C@]43C)[C@@H]12` [Betulin 1, betulin], the IC50 in assay [1] (setting [5]) was found to be 8.1 ± 2.9 µM; in assay [2] (Homo sapiens, A549), 8.6 ± 0.7 µM; in the assay with Du-145 (prostate) (Homo sapiens, DU-145) it was 44 ± 19.4 µM; with Hs294T (melanoma) (Homo sapiens, Hs 294T) it was 44.1 ± 7.2 µM; in assay [3] (Homo sapiens, MCF7), 26.2 ± 6.5 µM; in assay [4] (Homo sapiens, MCF-10A) it was 124 ± 41.6 µM.
With `C=CCOC(=O)O[C@H]1CC[C@@]2(C)C(CC[C@]3(C)C2CCC2C4C(C(=C)C)CC[C@]4(C=O)CC[C@]23C)C1(C)C` (stereo partly shown) [Compound 22, 3-Allyloxycarbonylbetulinic aldehyde], the IC50 in assay [1] (setting [5]) was 38.3 ± 4.6 µM.
In turn, `C#CCCOC(=O)O[C@H]1CC[C@@]2(C)C(CC[C@]3(C)C2CCC2C4C(C(=C)C)CC[C@]4(C=O)CC[C@]23C)C1(C)C` (stereo partly shown) [Compound 24, 3-(3-Butynyloxycarbonyl)betulinic aldehyde] showed an IC50 in assay [1] (setting [5]) of 28.3 ± 7.4 µM.
As for `C=C(C)C1CC[C@]2(CO)CC[C@]3(C)C(CCC4[C@@]5(C)CC[C@H](OC(=O)C#Cc6ccccc6)C(C)(C)C5CC[C@]43C)C12` (stereo partly shown) [Compound 8, 3-Phenylpropynoylbetulin], the “MV-4-11 IC50” value in assay [1] (setting [6]) is “Neg”.
For the compound `C=CC(=O)O[C@H]1CC[C@@]2(C)C(CC[C@]3(C)C2CCC2C4C(C(=C)C)CC[C@]4(C=O)CC[C@]23C)C1(C)C` (stereo partly shown) [Compound 16, 3-(2-Propenoyl)betulinic aldehyde], the IC50 worked out at 5.8 ± 1.8 µM in assay [1] (setting [5]); 15.1 ± 5 µM in assay [2] (Homo sapiens, A549); 67.1 ± 4.6 µM with Du-145 (prostate) (Homo sapiens, DU-145); 74.4 ± 7.3 µM in the assay with Hs294T (melanoma) (Homo sapiens, Hs 294T); 60.4 ± 4.4 µM in assay [3] (Homo sapiens, MCF7); 113 ± 11.7 µM in assay [4] (Homo sapiens, MCF-10A). Moreover, the “fold more potent than 3-acetylbetulinic aldehyde 3 against MV-4-11” value in assay [1] (MV-4-11 cells) is 6 fold.
In assay [1] (setting [5]), `C=C(C)C1CC[C@]2(CO)CC[C@]3(C)C(CCC4[C@@]5(C)CC[C@H](OC(=O)CC)C(C)(C)C5CC[C@]43C)C12` (stereo partly shown) [Compound 5, 3-Propanoylbetulin] yielded an IC50 of 38.9 ± 11.8 µM.

(Values after PMC6471197, “Biological Activity and In Silico Study of 3-Modified Derivatives of Betulin and Betulinic Aldehyde” (International Journal of Molecular Sciences, 2019).)
